Results as given in patent US6667387B1, “HCV core peptides” (priority 1992, dated 2003).
Ends that are not written are not given here.

Legend:
[1] = test system: antibodies in sera from HCV-seropositive donors; assay: ELISA with HCV antibody-positive sera (biotinylated peptides on streptavidin- or avidin-coated plates, unbiotinylated peptides coated directly); assay type: binding, human; conditions: for PEPTIDE ELISA (O.D.): Table 12, biotinylated 20-mers
Method in brief: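 Peptides coated either directly at 2–5 or 3 μg/ml in carbonate buffer pH 9.6, or biotinylated at 1 μg/ml on streptavidin-coated wells (3 μg/ml). Plates casein-blocked, then human sera (1:100 or 1:20) incubated 1 h at 37° C. Bound antibody detected with HRP anti-human Ig/TMB, read as OD450.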

[2] = ELISA with seronegative / negative control sera (specificity); assay type: binding, human
Method in brief: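 Specificity readout is OD at 450 nm (HRP goat anti-human Ig, TMB/H2O2, sulfuric acid stop), with ≥0.250 counted positive. Seronegative donor sera (typically 1:100, 1 h, 37° C) were applied to casein-blocked wells coated with peptide directly or via streptavidin capture of biotinylated peptide.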

PQRKTKRNTNRRPQDVKFPG
optical density (450 nm) ([1]; Table 4C, serum 8241, 20-fold dilution): 0.545 | optical density (450 nm) ([1]; Table 4C, serum 8242, 20-fold dilution): 2.415 | optical density (450 nm) ([1]; Table 4C, serum 8243, 20-fold dilution): 2.306 | optical density (450 nm) ([1]; Table 4C, serum 8247, 20-fold dilution): 1.975 | optical density (450 nm) ([1]; Table 4C, serum 8250, 20-fold dilution): 0.357 | optical density (450 nm) ([1]; Table 4C, serum 8271, 20-fold dilution): 1.284 | optical density (450 nm) ([1]; Table 4C, serum 8273, 20-fold dilution): 2.769 | optical density (450 nm) ([1]; Table 4C, serum 8274, 20-fold dilution): 2.943 | optical density (450 nm) ([1]; Table 4C, serum 8275, 20-fold dilution): 2.030 | optical density (450 nm) ([1]; Table 4C, serum 8276, 20-fold dilution): 2.348 | optical density (450 nm) ([1]; Table 4C, serum 8277, 20-fold dilution): 2.572 | optical density (450 nm) ([1]; Table 4C, serum 8278, 20-fold dilution): 2.022 | optical density (450 nm) ([1]; Table 5, sample 8242 (positive), peptide concentration 0.01 micrograms per milliliter, listed as HCV peptide II): 1.196 | optical density (450 nm) ([1]; Table 5, sample 8242 (positive), peptide concentration 0.03 micrograms per milliliter, listed as HCV peptide II): 1.481 | optical density (450 nm) ([1]; Table 5, sample 8242 (positive), peptide concentration 0.1 micrograms per milliliter, listed as HCV peptide II): 1.399 | optical density (450 nm) ([1]; Table 5, sample 8242 (positive), peptide concentration 0.3 micrograms per milliliter, listed as HCV peptide II): 1.365 | optical density (450 nm) ([1]; Table 5, sample 8242 (positive), peptide concentration 1.0 micrograms per milliliter, listed as HCV peptide II): 1.368 | optical density (450 nm) ([1]; Table 5, sample 8242 (positive), peptide concentration 3.0 micrograms per milliliter, listed as HCV peptide II): 1.427 | optical density (450 nm) ([1]; Table 5, sample 8243 (positive), peptide concentration 0.01 micrograms per milliliter, listed as HCV peptide II): 1.088 | optical density (450 nm) ([1]; Table 5, sample 8243 (positive), peptide concentration 0.03 micrograms per milliliter, listed as HCV peptide II): 1.597 | optical density (450 nm) ([1]; Table 5, sample 8243 (positive), peptide concentration 0.1 micrograms per milliliter, listed as HCV peptide II): 1.639 | optical density (450 nm) ([1]; Table 5, sample 8243 (positive), peptide concentration 0.3 micrograms per milliliter, listed as HCV peptide II): 1.608 | optical density (450 nm) ([1]; Table 5, sample 8243 (positive), peptide concentration 1.0 micrograms per milliliter, listed as HCV peptide II): 1.652 | optical density (450 nm) ([1]; Table 5, sample 8243 (positive), peptide concentration 3.0 micrograms per milliliter, listed as HCV peptide II): 1.668 | optical density (450 nm) ([1]; Table 5, sample 8318 (positive), peptide concentration 0.01 micrograms per milliliter, listed as HCV peptide II): 2.002 | optical density (450 nm) ([1]; Table 5, sample 8318 (positive), peptide concentration 0.03 micrograms per milliliter, listed as HCV peptide II): 2.181 | optical density (450 nm) ([1]; Table 5, sample 8318 (positive), peptide concentration 0.1 micrograms per milliliter, listed as HCV peptide II): 2.001 | optical density (450 nm) ([1]; Table 5, sample 8318 (positive), peptide concentration 0.3 micrograms per milliliter, listed as HCV peptide II): 1.958 | optical density (450 nm) ([1]; Table 5, sample 8318 (positive), peptide concentration 1.0 micrograms per milliliter, listed as HCV peptide II): 1.993 | optical density (450 nm) ([1]; Table 5, sample 8318 (positive), peptide concentration 3.0 micrograms per milliliter, listed as HCV peptide II): 2.016 | optical density (450 nm) ([1]; Table 5, sample 8320 (positive), peptide concentration 0.01 micrograms per milliliter, listed as HCV peptide II): 2.519 | optical density (450 nm) ([1]; Table 5, sample 8320 (positive), peptide concentration 0.03 micrograms per milliliter, listed as HCV peptide II): 2.757 | optical density (450 nm) ([1]; Table 5, sample 8320 (positive), peptide concentration 0.1 micrograms per milliliter, listed as HCV peptide II): 2.718 | optical density (450 nm) ([1]; Table 5, sample 8320 (positive), peptide concentration 0.3 micrograms per milliliter, listed as HCV peptide II): 2.684 | optical density (450 nm) ([1]; Table 5, sample 8320 (positive), peptide concentration 1.0 micrograms per milliliter, listed as HCV peptide II): 2.684 | optical density (450 nm) ([1]; Table 5, sample 8320 (positive), peptide concentration 3.0 micrograms per milliliter, listed as HCV peptide II): 2.718 | optical density (450 nm) ([1]; Table 8, serum 8243 (HCV), Avidin): 1.430 | optical density (450 nm) ([1]; Table 8, serum 8247 (HCV), Avidin): 1.356 | optical density (450 nm) ([1]; Table 8, serum 8248 (HCV), Avidin): 2.287 | optical density (450 nm) ([1]; Table 8, serum 8269 (HCV), Avidin): 1.213 | optical density (450 nm) ([1]; Table 8, serum 8273 (HCV), Avidin): 2.017 | optical density (450 nm) ([1]; Table 8, serum 8278 (HCV), Avidin): 1.878 | optical density (450 nm) ([1]; Table 8, serum 8285 (HCV), Avidin): 1.592 | optical density (450 nm) ([1]; Table 8, serum 8290 (HCV), Avidin): 0.060 | optical density (450 nm) ([1]; Table 8, serum 8291 (HCV), Avidin): 1.539 | PEPTIDE ELISA (O.D.) ([1]; serum 0843): 2.306 | PEPTIDE ELISA (O.D.) ([1]; serum 8240): 2.441 | PEPTIDE ELISA (O.D.) ([1]; serum 8241): 0.545 | PEPTIDE ELISA (O.D.) ([1]; serum 8242): 2.415 | PEPTIDE ELISA (O.D.) ([1]; serum 8332): 1.977 | PEPTIDE ELISA (O.D.) ([1]; serum 8339): 2.030 | PEPTIDE ELISA (O.D.) ([1]; serum 8350): 1.982 | PEPTIDE ELISA (O.D.) ([1]; serum 8377): 2.181 | PEPTIDE ELISA (O.D.) ([1]; serum 8378): 2.140 | PEPTIDE ELISA (O.D.) ([1]; serum 8388): 2.463 | optical density (450 nm) ([2]; Table 4C, negative serum): 0.070 | optical density (450 nm) ([2]; Table 5, sample 1747 (negative), peptide concentration 0.01 micrograms per milliliter, listed as HCV peptide II): 0.045 | optical density (450 nm) ([2]; Table 5, sample 1747 (negative), peptide concentration 0.03 micrograms per milliliter, listed as HCV peptide II): 0.045 | optical density (450 nm) ([2]; Table 5, sample 1747 (negative), peptide concentration 0.1 micrograms per milliliter, listed as HCV peptide II): 0.045 | optical density (450 nm) ([2]; Table 5, sample 1747 (negative), peptide concentration 0.3 micrograms per milliliter, listed as HCV peptide II): 0.046 | optical density (450 nm) ([2]; Table 5, sample 1747 (negative), peptide concentration 1.0 micrograms per milliliter, listed as HCV peptide II): 0.071 | optical density (450 nm) ([2]; Table 5, sample 1747 (negative), peptide concentration 3.0 micrograms per milliliter, listed as HCV peptide II): 0.064 | optical density (450 nm) ([2]; Table 5, sample 1781 (negative), peptide concentration 0.01 micrograms per milliliter, listed as HCV peptide II): 0.053 | optical density (450 nm) ([2]; Table 5, sample 1781 (negative), peptide concentration 0.03 micrograms per milliliter, listed as HCV peptide II): 0.049 | optical density (450 nm) ([2]; Table 5, sample 1781 (negative), peptide concentration 0.1 micrograms per milliliter, listed as HCV peptide II): 0.047 | optical density (450 nm) ([2]; Table 5, sample 1781 (negative), peptide concentration 0.3 micrograms per milliliter, listed as HCV peptide II): 0.051 | optical density (450 nm) ([2]; Table 5, sample 1781 (negative), peptide concentration 1.0 micrograms per milliliter, listed as HCV peptide II): 0.055 | optical density (450 nm) ([2]; Table 5, sample 1781 (negative), peptide concentration 3.0 micrograms per milliliter, listed as HCV peptide II): 0.057 | optical density (450 nm) ([2]; Table 8, serum 1782 (blood donor), Avidin): 0.057 | optical density (450 nm) ([2]; Table 8, serum 1784 (blood donor), Avidin): 0.045 | optical density (450 nm) ([2]; Table 8, serum 1785 (blood donor), Avidin): 0.045 | optical density (450 nm) ([2]; Table 8, serum 1794 (blood donor), Avidin): 0.153
